Reference: ChEMBL document CHEMBL1201862, “PubChem BioAssay data set” (2004)
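Five concentrations, 48 hours, 96-well plates. GI50 marks 50% less growth.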 Calls of active or inactive are those of the source. Rule as the data show it: active = GI50 up to about 1.1 µM and inactive = higher.

Experiments:
Experiment in all cases: NCI anticancer screen, dose series, 48 h
HCC 2998 = tested on: HCC 2998
SNB-19 = tested on: SNB-19
HCT-15 = tested on: HCT-15
OVCAR-3 = tested on: OVCAR-3
SW-620 = tested on: SW-620
U-251 = tested on: U-251
IGROV-1 = tested on: IGROV-1
RXF 393 = tested on: RXF 393
SF-268 = tested on: SF-268
UACC-62 = tested on: UACC-62
NCI-H460 = tested on: NCI-H460
HL-60 = tested on: HL-60
SF-539 = tested on: SF-539
SK-MEL-28 = tested on: SK-MEL-28
UO-31 = tested on: UO-31
CCRF-CEM = tested on: CCRF-CEM
HCT-116 = tested on: HCT-116
NCI-H522 = tested on: NCI-H522
SF-295 = tested on: SF-295
A549 = tested on: A549

Row | Compound | GI50 (HCC 2998) | GI50 (SNB-19) | GI50 (HCT-15) | GI50 (OVCAR-3) | GI50 (SW-620) | GI50 (U-251) | GI50 (IGROV-1) | GI50 (RXF 393) | GI50 (SF-268) | GI50 (UACC-62) | GI50 (NCI-H460) | GI50 (HL-60) | GI50 (SF-539) | GI50 (SK-MEL-28) | GI50 (UO-31) | GI50 (CCRF-CEM) | GI50 (HCT-116) | GI50 (NCI-H522) | GI50 (SF-295) | GI50 (A549)
1 | C=C/C(C)=C/[C@H](C)C(=O)C[C@H](O)CC1CC(=O)NC(=O)C1 | 20.2 µM (inactive) | 18.7 µM (inactive) | 44.7 µM | 49.2 µM (inactive) | 31.5 µM (inactive) | 34.5 µM (inactive) | 19.9 µM (inactive) | 38.5 µM (inactive) | 36 µM (inactive) | 37.2 µM (inactive) | 37.7 µM (inactive) | 20.3 µM (inactive) | 35.1 µM (inactive) | 28.6 µM (inactive) | 48.9 µM (inactive) | 25 µM (inactive) | 40.3 µM (inactive) | 21.2 µM (inactive) | 36.1 µM (inactive) | 51.3 µM (inactive)
2 | O=c1cnn(C2OC(CO)C(O)C2O)c(=S)[nH]1 (stereo not given) | > 87.1 µM (inactive) | 43.1 µM (inactive) | 2.09 µM | > 54.2 µM (inactive) | 5.21 µM (inactive) | 3.03 µM (inactive) | 28.7 µM (inactive) | > 100 µM (inactive) | 11.1 µM (inactive) | 19.4 µM (inactive) | 0.316 µM (active) | 2.05 µM (inactive) | 66.5 µM (inactive) | > 100 µM (inactive) | 28.2 µM (inactive) | 2.52 µM (inactive) | 1.67 µM (inactive) | 16.4 µM (inactive) | 11.9 µM (inactive) | 2.15 µM (inactive)
3 | C#CC[C@@]12CC(=O)C[C@@H]1CCC1(C2)OCCO1.C#CC[C@]12CC(=O)CC[C@H]1CC(=O)C2 | > 100 µM (inactive) | > 100 µM (inactive) | > 100 µM | > 100 µM (inactive) | > 100 µM (inactive) | > 100 µM (inactive) | > 100 µM (inactive) | > 100 µM (inactive) | > 100 µM (inactive) | 95.5 µM (inactive) | > 100 µM (inactive) | 29.1 µM (inactive) | > 100 µM (inactive) | > 100 µM (inactive) | > 100 µM (inactive) | 60.1 µM (inactive) | > 100 µM (inactive) | > 100 µM (inactive) | > 100 µM (inactive) | > 100 µM (inactive)
4 | O=Cc1cn(CCCCCCCCn2cc(C=O)c3ccccc32)c2ccccc12 | > 10 µM (inactive) | > 10 µM (inactive) | > 10 µM | > 10 µM (inactive) | > 10 µM (inactive) | > 10 µM (inactive) | > 10 µM (inactive) | > 10 µM (inactive) | > 10 µM (inactive) | > 10 µM (inactive) | 0.561 µM (active) | 5.46 µM (inactive) | > 10 µM (inactive) | > 10 µM (inactive) | > 10 µM (inactive) | > 10 µM (inactive) | 7.4 µM (inactive) | > 10 µM (inactive) | 6.41 µM (inactive) | 6.59 µM (inactive)
5 | CSc1nc2c(ncn2C2OCC(O)C(O)C2O)c(=O)n1C (stereo not given) | > 100 µM (inactive) | > 100 µM (inactive) | > 100 µM | > 100 µM (inactive) | > 100 µM (inactive) | > 100 µM (inactive) | > 100 µM (inactive) | > 100 µM (inactive) | > 100 µM (inactive) | > 100 µM (inactive) | > 100 µM (inactive) | > 100 µM (inactive) | > 100 µM (inactive) | > 100 µM (inactive) | > 100 µM (inactive) | > 100 µM (inactive) | > 100 µM (inactive) | > 100 µM (inactive) | > 100 µM (inactive) | > 100 µM (inactive)
6 | COc1cc(C2c3cc4c(cc3[C@@H](Nc3cccc(C(C)=O)c3)C3COC(=O)[C@H]23)OCO4)cc(OC)c1O (stereo not given in full) | 1.34 µM (inactive) | 0.236 µM (active) | 0.307 µM | 1.91 µM (inactive) | 0.2 µM (active) | 0.245 µM (active) | 3.03 µM (inactive) | 0.762 µM (active) | 0.577 µM (active) | 0.233 µM (active) | < 0.01 µM (active) | < 0.0327 µM (active) | 0.243 µM (active) | 3.01 µM (inactive) | 0.291 µM (active) | 0.0349 µM (active) | 0.664 µM (active) | 1.39 µM (inactive) | 0.126 µM (active) | < 0.0184 µM (active)
7 | CN(C(=O)c1ccc(OCCCC(=O)O)c(Cl)c1Cl)C1CCCC1 | > 100 µM (inactive) | > 100 µM (inactive) | > 100 µM | > 100 µM (inactive) | > 100 µM (inactive) | > 100 µM (inactive) | > 100 µM (inactive) | > 71.1 µM (inactive) | > 96.4 µM (inactive) | > 100 µM (inactive) | > 95.3 µM (inactive) | > 72.8 µM (inactive) | > 100 µM (inactive) | > 100 µM (inactive) | > 60 µM (inactive) | > 100 µM (inactive) | > 62.8 µM (inactive) | 42.6 µM (inactive) | > 72.6 µM (inactive) | > 100 µM (inactive)
8 | CCCCCCCCCCCC1=C(O)C(=O)C=C(O)C1=O [EMBELIN] | 4.72 µM (inactive) | 16.3 µM (inactive) | 5.11 µM | 4.71 µM (inactive) | 18.3 µM (inactive) | 5.02 µM (inactive) | 6.76 µM (inactive) | 12.9 µM (inactive) | 3.92 µM (inactive) | 4.11 µM (inactive) | 2.88 µM (inactive) | 3.95 µM (inactive) | 6.76 µM (inactive) | 6.67 µM (inactive) | 5.56 µM (inactive) | 4.27 µM (inactive) | 9.2 µM (inactive) | 8.95 µM (inactive) | 6.03 µM (inactive) | 4.36 µM (inactive)
9 | COc1ccc2cc1Oc1ccc(cc1)C[C@H]1c3cc(c(OC)cc3CCN1C)Oc1c(O)c(OC)cc3c1[C@H](C2)N(C)CC3 [FANGCHINOLINE] | 17.6 µM (inactive) | 43.8 µM (inactive) | 13.3 µM | 21.6 µM (inactive) | 15 µM (inactive) | 27.2 µM (inactive) | 27.1 µM (inactive) | 16.5 µM (inactive) | 30.2 µM (inactive) | 20.7 µM (inactive) | 21.8 µM (inactive) | 14 µM (inactive) | 20.3 µM (inactive) | 21.8 µM (inactive) | 25.5 µM (inactive) | 24.3 µM (inactive) | 13.3 µM (inactive) | 27.5 µM (inactive) | 16.9 µM (inactive) | 31.5 µM (inactive)
